# Laboratory results published in ChEMBL document CHEMBL5042522, “One- and Two-Photon Uncaging of Carbon Monoxide (CO) with Real-Time Monitoring: On-Demand Carbazole-Based Dual CO-Releasing Platform to Test over Single and Combinatorial Approaches for the Efficient Regression of Orthotopic Murine Melanoma In Vivo” (J Med Chem, 2022).
# Activity calls are given as the source filed them. The rule behind the calls is not given here.
# What was measured:
# [1] = Photorelease ability in PBS buffer at pH 7.4 assessed as compound decomposition at 100 uM irradiated with >= 365 nm Hg lamp upto 30 mins by UV absorption spectroscopy; type: physicochemical; conditions: read-out: Drug degradation
# [2] = Photorelease ability in PBS buffer at pH 7.4 assessed as compound decomposition at 0.1 mM irradiated with pulsed laser at 730 nm for 30 mins by RP-HPLC analysis; type: physicochemical; conditions: read-out: Drug degradation
# [3] = Photorelease activity in PBS buffer at pH 7.4 assessed as release of CO using 3',6'-Bis(allyloxy)-3H-spiro(isobenzofuran-1,9'-xanthen)-3-one fluorescent probe by measuring red shift absorption spectra at 500 uM irradiated with >= 365 nm Hg lamp in presence of PdCl2 by absorption spectroscopy; type: physicochemical; conditions: pH 7.4, 500 µM, TDE = time-dependent effect
# [4] = Photorelease activity in PBS buffer at pH 7.4 assessed as release of CO using 3',6'-Bis(allyloxy)-3H-spiro(isobenzofuran-1,9'-xanthen)-3-one fluorescent probe at 500 uM irradiated with >= 365 nm Hg lamp for 30 mins in presence of PdCl2 by absorption spectroscopy; type: physicochemical; conditions: pH 7.4, 0.5 h
# [5] = Photorelease activity in PBS buffer at pH 7.4 assessed as MbCO formation by measuring change in absorbance intensity at 500 uM irradiated with >= 365 nm Hg lamp for 30 mins in presence of deoxy-myoglobin by absorption spectroscopy; type: physicochemical; conditions: pH 7.4, 0.5 h
# [6] = Photorelease activity in PBS buffer at pH 7.4 assessed as release of CO in absence of light irradiation by absorption spectroscopy; type: physicochemical
# [7] = Drug uptake in mouse B16-F10 cells assessed as drug internalization by measuring blue fluorescence at 20 uM incubated for 4 hrs followed by propidium iodide staining based confocal laser scanning microscopy; type: ADME, cell-based; conditions: b16-f10, 4 h
# B16-F10 [8] = assay: Photorelease activity in mouse B16-F10 cells assessed as uncaging of active molecules of drug by measuring green fluorescence at 20 uM incubated for 4 hrs irradiated with >= 365 nm Hg lamp for 5 mins and further incubated for 4 hrs by propidium iodide staining based confocal laser scanning microscopy; type: functional, cell-based; conditions: time 8.0 hrs
# B16-F10 [9] = assay: Cytotoxicity against mouse B16-F10 cells assessed as cell viability at 2.5 uM irradiated with >= 365 nm Hg lamp for 5 mins after 6 hrs post-treatment and further incubated for 72 hrs by MTT assay; type: functional; conditions: B16-F10, light or radiation study, time 78 hrs, read-out: Activity
# HEK293 [10] = assay: Induction of apoptosis in HEK293 cells assessed as viable cells at 5 uM incubated for 24 hrs by annexin-V-FITC and PI staining based flow cytometry analysis (reference value: 99.9 %); type: functional; conditions: Homo sapiens, read-out: Activity
# HEK293 [11] = assay: Induction of apoptosis in HEK293 cells assessed as early apoptotic cells at 5 uM incubated for 24 hrs by annexin-V-FITC and PI staining based flow cytometry analysis (reference value: 0.1 %); type: functional, Homo sapiens
# HEK293 [12] = assay: Induction of apoptosis in HEK293 cells assessed as late apoptotic cells at 5 uM incubated for 24 hrs by annexin-V-FITC and PI staining based flow cytometry analysis (reference value: 0 %); type: functional, Homo sapiens
# HEK293 [13] = assay: Induction of apoptosis in HEK293 cells assessed as early apoptotic cells at 5 uM with light irradiation incubated for 24 hrs by annexin-V-FITC and PI staining based flow cytometry analysis (reference value: 0.1 %); type: functional, Homo sapiens
# HEK293 [14] = assay: Induction of apoptosis in HEK293 cells assessed as necrotic cells at 5 uM with light irradiation incubated for 24 hrs by annexin-V-FITC and PI staining based flow cytometry analysis (reference value: 0 %); type: functional, Homo sapiens
# B16-F10 [15] = assay: Induction of apoptosis in mouse B16-F10 cells assessed as viable cells at 5 uM incubated for 24 hrs by annexin-V-FITC and PI staining based flow cytometry analysis (reference value: 99.9 %); type: functional; conditions: read-out: Activity
# B16-F10 [16] = assay: Induction of apoptosis in mouse B16-F10 cells assessed as early apoptotic cells at 5 uM incubated for 24 hrs by annexin-V-FITC and PI staining based flow cytometry analysis (reference value: 0 %); type: functional
# B16-F10 [17] = assay: Induction of apoptosis in mouse B16-F10 cells assessed as late apoptotic cells at 5 uM incubated for 24 hrs by annexin-V-FITC and PI staining based flow cytometry analysis (reference value: 0.1 %); type: functional
# B16-F10 [18] = assay: Induction of apoptosis in mouse B16-F10 cells assessed as necrotic cells at 5 uM incubated for 24 hrs by annexin-V-FITC and PI staining based flow cytometry analysis (reference value: 0 %); type: functional
# B16-F10 [19] = assay: Induction of apoptosis in mouse B16-F10 cells assessed as late apoptotic cells at 5 uM with light irradiation incubated for 24 hrs by annexin-V-FITC and PI staining based flow cytometry analysis (reference value: 0.1 %); type: functional
# [20] = Biodistribution in kidney of C57BL/6 mouse model harboring mouse B16-F10 cells at 0.4 mg/kg, iv irradiated with >= 365 nm Hg lamp for 10 mins measured after 24 hrs post-administration by fluorescence based assay; type: ADME, organism-based; conditions: in vivo, 24.17 h, time 1450 min
# [21] = Biodistribution in heart of C57BL/6 mouse model harboring mouse B16-F10 cells at 0.4 mg/kg, iv irradiated with >= 365 nm Hg lamp for 10 mins measured after 24 hrs post-administration by fluorescence based assay; type: ADME, organism-based; conditions: in vivo, 24.17 h, time 1450 min
# [22] = Biodistribution in lung of C57BL/6 mouse model harboring mouse B16-F10 cells at 0.4 mg/kg, iv irradiated with >= 365 nm Hg lamp for 10 mins measured after 24 hrs post-administration by fluorescence based assay; type: ADME, organism-based; conditions: in vivo, 24.17 h, time 1450 min
# [23] = Biodistribution in spleen of C57BL/6 mouse model harboring mouse B16-F10 cells at 0.4 mg/kg, iv irradiated with >= 365 nm Hg lamp for 10 mins measured after 24 hrs post-administration by fluorescence based assay; type: ADME, organism-based; conditions: in vivo, 24.17 h, time 1450 min
# B16-F10 [24] = assay: Antitumor activity against mouse B16-F10 cells bearing C57BL/6J mouse assessed as tumor growth inhibition at 0.4 mg/kg, iv administered alternate days for 24 days followed by irradiation with pulsed laser at 730 nm for 10 mins after 24 hrs each post-injection by slide caliper method; type: functional, organism-based; conditions: time 25.0 day
# [25] = Toxicity in C57BL/6J mouse model harboring mouse B16-F10 cells assessed as liver tissue necrosis at 0.4 mg/kg, iv administered alternate days for 24 days followed by irradiation with pulsed laser at 730 nm for 10 mins after 24 hrs each post-injection by hematoxylin and eosin staining based assay; type: organism-based; conditions: in vivo, 600 h, 0.73 µM, time 25 day
# [26] = Toxicity in C57BL/6J mouse model harboring mouse B16-F10 cells assessed as kidney tissue necrosis at 0.4 mg/kg, iv administered alternate days for 24 days followed by irradiation with pulsed laser at 730 nm for 10 mins after 24 hrs each post-injection by hematoxylin and eosin staining based assay; type: organism-based; conditions: in vivo, 600 h, 0.73 µM, time 25 day
# [27] = Toxicity in C57BL/6J mouse model harboring mouse B16-F10 cells assessed as lung tissue necrosis at 0.4 mg/kg, iv administered alternate days for 24 days followed by irradiation with pulsed laser at 730 nm for 10 mins after 24 hrs each post-injection by hematoxylin and eosin staining based assay; type: organism-based; conditions: in vivo, 600 h, 0.73 µM, time 25 day
# [28] = Toxicity in C57BL/6J mouse model harboring mouse B16-F10 cells assessed as spleen tissue necrosis at 0.4 mg/kg, iv administered alternate days for 24 days followed by irradiation with pulsed laser at 730 nm for 10 mins after 24 hrs each post-injection by hematoxylin and eosin staining based assay; type: organism-based; conditions: in vivo, 600 h, 0.73 µM, time 25 day
compound,measurement,setting,value
CCn1c2ccc(-c3coc(=O)o3)cc2c2cc(-c3coc(=O)o3)ccc21,"degraded at 0.5 h, 100 µM",[1],100%
same,"degraded at 0.5 h, 100 µM",[2],37%
same,Drug metabolism,[3],Tde
same,Drug metabolism,[4],12 ppm
same,Drug metabolism,[5],Active
same,Drug metabolism,[6],Not Active
same,Drug uptake,[7],Active
same,Drug metabolism,B16-F10 [8],100%
same,viability at 2.5 µM,B16-F10 [9],21%
same,viability at 5 µM,HEK293 [10],98.9%
same,Activity,HEK293 [11],0.9%
same,Activity,HEK293 [12],0.2%
same,Activity,HEK293 [13],46.3%
same,Activity,HEK293 [14],0%
same,viability at 5 µM,B16-F10 [15],99%
same,Activity,B16-F10 [16],1%
same,Activity,B16-F10 [17],0%
same,Activity,B16-F10 [18],0%
same,Activity,B16-F10 [19],15.4%
same,Drug uptake,[20],Active
same,Drug uptake,[21],Active
same,Drug uptake,[22],Active
same,Drug uptake,[23],Active
same,Activity,B16-F10 [24],Active
same,Activity,[25],Non-Toxic
same,Activity,[26],Non-Toxic
same,Activity,[27],Non-Toxic
same,Activity,[28],Non-Toxic
